Measured values taken from patent US20020016341A1, “Heterocyclic thioester and ketone hair growth compositions and uses” (priority 1998, published 2002).
Where two headings read alike, the source gives them in different places.

Assays:
FKBP12 = FKBP12 (Homo sapiens, UniProt P62942); test: Ki test: inhibition of peptidyl-prolyl isomerase (rotamase) activity, chymotrypsin-coupled assay; type: biochemical
Source text: The inhibition of the prolyl peptidyl cis-trans isomerase activity of FKBP may be measured as an indicator of this affinity.
Inhibition of the peptidyl-prolyl isomerase (rotamase) activity of the compounds used in the inventive methods and pharmaceutical compositions can be evaluated by known methods described in the literature (Harding et al., Nature, 1989, 341:758-760; Holt et al. J. Am. Chem. Soc., 115:9923-9938).
The cis-trans isomerization of an alanine-proline bond in a model substrate, N-succinyl-Ala-Ala-Pro-Phe-p-nitroanilide, is monitored spectrophotometrically in a chymotrypsin-coupled assay, which releases paranitroanilide from the trans form of the substrate. The inhibition of this reaction caused by the addition of different concentrations of inhibitor is determined, and the data is analyzed as a change in first-order rate constant as a function of inhibitor concentration to yield the apparent K1 values.
In a plastic cuvette are added […] of ice cold assay buffer (25 mM HEPES, pH 7.8, 100 mM NaCl), 10 mL of FKBP (2.5 mM in 10 mM Tris-Cl pH 7.5, 100 mM NaCl, 1 mM dithiothreitol), 25 mL of chymotrypsin (50 mg/ml in 1 mM HCl) and […] of test compound at various concentrations in dimethyl sulfoxide. The reaction is initiated by the addition of 5 mL of substrate (succinyl-Ala-Phe-Pro-Phe-para-nitroanilide, 5 mg/mL in 2.35 mM LiCl in trifluoroethanol).
The absorbance at 390 nm versus time is monitored for 90 seconds using a spectrophotometer and the rate constants are determined from the absorbance versus time data files.

C57 black 6 mice [1] = test: In vivo hair generation test, Experiment B; settings: one micromole per milliliter topical, three times per week, 14 days after initiation of treatment
Method: Care was taken not to nick or cause abrasion to the underlying dermal layers. The animals were in anagen growth phase when shaved. […] The animals were treated three times per week, and hair growth was evaluated 14 days after initiation of treatment.

C57 black 6 mice [2] = test: In vivo hair generation test, Experiment A; settings: 30 μM topical, 3 applications over 5 days, after six weeks
Source text: Care was taken not to nick or cause abrasion to the underlaying dermal layers. The animals were in anagen growth phase, as indicated by the pinkish color of the skin. […] Hair growth was quantitated by the percent of shaved area covered by new hair growth during this time period.

[3] = apparent Ki, rotamase inhibition, read-out: Ki

Chain of FKBP12 (P62942 whole entry, species assumed): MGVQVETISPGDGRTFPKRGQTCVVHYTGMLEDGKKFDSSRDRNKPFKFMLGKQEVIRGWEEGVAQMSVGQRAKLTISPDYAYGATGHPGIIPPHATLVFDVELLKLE

Compound | Ki (FKBP12; [3]) [nM] | also measured
1,5-Diphenyl-3-pentyl 1-(3,3-dimethyl-1,2-dioxopentyl)-2-piperidinecarbothioate [Compound 40] | 1230 | –
CCC(C)(C)C(=O)C(=O)N1CCC[C@H]1C(=O)SCc1csc2ccccc12 [Compound 11, (3-Thioindolyl)methyl (2S)-1-(3,3-dimethyl-1,2-dioxopentyl)-2-pyrrolidinecarbothioate] | 299 | –
3-Phenyl-1-propyl (2S)-1-(2-cyclohexyl-1,2-dioxoethyl)-2-pyrrolidinecarbothioate [Compound 32] | 362 | –
2-Phenyl-1-ethyl (2S)-1-(2-cyclohexyl-1,2-dioxoethyl)-2-pyrrolidinecarbothioate [Compound 12] | 442 | –
2-Phenyl-1-ethyl (2S)-1-(1-cyclopentyl-1,2-dioxoethyl)-2-pyrrolidinecarbothioate [Compound 28] | 108 | –
CCC(C)(C)C(=O)C(=O)N1CCC[C@H]1C(=O)SCCC(c1ccccc1)c1ccccc1 [GPI 1234] | – | hair growth (relative hair growth index, FIG. 5) (C57 black 6 mice [1]): dramatic hair growth
4,4-Di(para-fluorophenyl)butyl 1-(3,3-dimethyl-2-oxopentanoyl)-2-pyrrolidinecarbothioate [Compound 46] | 757 | –
2,2-Diphenylethyl (2S)-1-(3,3-dimethyl-2-oxopentanoyl)-2-piperidinecarbothioate [Compound 49] | 1330 | –
CCC(C)(C)C(=O)C(=O)N1CCC[C@H]1C(=O)SCCC(c1ccc(F)cc1)c1ccc(F)cc1 [Compound 45, 3,3-Di(para-fluoro)phenyl-1-propyl (2S)-1-(3,3-dimethyl-1,2-dioxopentyl)-2-pyrrolidinecarbothioate] | 31 | –
3-(3-Fluorophenyl)propyl 1-(3,3-dimethyl-2-oxopentanoyl)-2-piperidinecarbothioate [Compound 64] | 163 | –
3-(1-Naphthyl)propyl (2S)-1-(3,3-dimethyl-2-oxopentanoyl)-2-pyrrolidinecarbothioate [Compound 47] | 21 | –
CC(C)(C)C(=O)C(=O)N1CCCCC1C(=O)C(CCc1ccccc1)CCc1ccccc1 (centres unmarked) [Compound 69] | – | Ki (FKBP12): 49 nM
3-(3-Fluorophenyl)propyl (2S)-1-(3,3-dimethyl-2-oxopentanoyl)-2-pyrrolidinecarbothioate [Compound 58] | 79 | –
3-(3-Chlorophenyl)propyl (2S)-1-(3,3-dimethyl-2-oxopentanoyl)-2-pyrrolidinecarbothioate [Compound 54] | 37 | –
CCC(C)(C)C(=O)C(=O)N1CCC[C@H]1C(=O)CCCC(c1ccc(F)cc1)c1ccc(F)cc1 [Compound 70, 1-{(2S)-2-[5,5-di(4-Fluorophenyl)pentanoyl]-2-pyrrolidine}-3,3-dimethyl-1,2-pentanedione] | 457 | –
3-(para-Methoxyphenyl)-1-propyl 1-(2-phenyl-1,2-dioxoethyl)piperidine-2-carbothioate [Compound 43] | 259 | –

Compound | Ki (FKBP12; [3]) [nM] | also measured
3-(1-Naphthyl)-1-propyl 1-(3,3-dimethyl-1,2-dioxopentyl)piperidine-2-carbothioate [Compound 44] | 188 | –
CCC(C)(C)C(=O)C(=O)N1CCC[C@H]1C(=O)OCCCc1cccnc1 [GPI 1046, 3-(3-pyridyl)-1-propyl (2s)-1-(3,3-dimethyl-1,2-dioxopentyl)-2-pyrrolidinecarboxylate] | – | hair regrowth in shaved area (C57 black 6 mice [2]): essentially complete hair regrowth
4-Phenyl-1-butyl (2S)-1-(3,3-dimethyl-1,2-dioxopentyl)-2-pyrrolidinecarbothioate [Compound 34] | 34 | –
3-(2-Chlorophenyl)propyl (2S)-1-(3,3-dimethyl-2-oxopentanoyl)-2-pyrrolidinecarbothioate [Compound 61] | 139 | –
3-(2-Fluorophenyl)propyl (2S)-1-(3,3-dimethyl-2-oxopentanoyl)-2-pyrrolidinecarbothioate [Compound 57] | 57 | –
4-Phenyl-1-butyl 1-(1,2-dioxo-3,3-dimethylbutyl)-2-piperidinecarbothioate [Compound 39] | 347 | –
CCC(C)(C)C(=O)C(=O)N1CCC[C@H]1C(=O)CCCCc1ccccc1 [Compound 1] | 31 | –
3-Phenyl-1-propyl 1-(3,3-dimethyl-1,2-dioxobutyl)-2-piperidinecarbothioate [Compound 29] | 59 | –
O=C(C(=O)N1CCCCC1C(=O)CCCCCc1ccccc1)C1CCCCC1 (centres unmarked) [Compound 68] | – | Ki (FKBP12): 284 nM
3-(3-Pyridyl)-1-propyl (2S)-1-(2-cyclohexyl-1,2-dioxoethyl)-2-pyrrolidinecarbothioate [Compound 35] | 62 | –
2-Phenyl-1-ethyl 1-(2-phenyl-1,2-dioxoethyl)-2-piperidinecarbothioate [Compound 14] | 313 | –
CCC(C)(C)C(=O)C(=O)N1CCCCC1C(=O)SCCCc1ccc2ccccc2c1 [Compound 53, 3-(2-Naphthyl)propyl (2R,S)-1-(3,3-dimethyl-2-oxopentanoyl)-2-piperidinecarbothioate] | 261 | –
4-Phenyl-1-butyl (2S)-1-(2-cyclohexyl-1,2-dioxoethyl)-2-pyrrolidinecarbothioate [Compound 33] | 1700 | –
3-Phenylpropyl 1-(3,3-dimethyl-2-oxopentanoyl)-2-piperidinecarbothioate [Compound 60] | 90 | –
2-Phenyl-1-ethyl 1-(3,3-dimethyl-1,2-dioxopentyl)-2-piperidinecarbothioate [Compound 10] | 12 | –
4-Phenylbutyl 1-(3,3-dimethyl-2-oxopentanoyl)-2-piperidinecarbothioate [Compound 59] | 962 | –
